Data on 29 compounds can be found in patent US11891365B2, “3-alkyl-4-amido-bicyclic [4,5,0] hydroxamic acids as HDAC inhibitors” (Valo Health, Inc., priority 2015, dated 2024).

The target in the assay is T1, Full length human recombinant HDAC6 protein (Homo sapiens, UniProt Q9UBN7).
T1 sequence (Q9UBN7 1-1215): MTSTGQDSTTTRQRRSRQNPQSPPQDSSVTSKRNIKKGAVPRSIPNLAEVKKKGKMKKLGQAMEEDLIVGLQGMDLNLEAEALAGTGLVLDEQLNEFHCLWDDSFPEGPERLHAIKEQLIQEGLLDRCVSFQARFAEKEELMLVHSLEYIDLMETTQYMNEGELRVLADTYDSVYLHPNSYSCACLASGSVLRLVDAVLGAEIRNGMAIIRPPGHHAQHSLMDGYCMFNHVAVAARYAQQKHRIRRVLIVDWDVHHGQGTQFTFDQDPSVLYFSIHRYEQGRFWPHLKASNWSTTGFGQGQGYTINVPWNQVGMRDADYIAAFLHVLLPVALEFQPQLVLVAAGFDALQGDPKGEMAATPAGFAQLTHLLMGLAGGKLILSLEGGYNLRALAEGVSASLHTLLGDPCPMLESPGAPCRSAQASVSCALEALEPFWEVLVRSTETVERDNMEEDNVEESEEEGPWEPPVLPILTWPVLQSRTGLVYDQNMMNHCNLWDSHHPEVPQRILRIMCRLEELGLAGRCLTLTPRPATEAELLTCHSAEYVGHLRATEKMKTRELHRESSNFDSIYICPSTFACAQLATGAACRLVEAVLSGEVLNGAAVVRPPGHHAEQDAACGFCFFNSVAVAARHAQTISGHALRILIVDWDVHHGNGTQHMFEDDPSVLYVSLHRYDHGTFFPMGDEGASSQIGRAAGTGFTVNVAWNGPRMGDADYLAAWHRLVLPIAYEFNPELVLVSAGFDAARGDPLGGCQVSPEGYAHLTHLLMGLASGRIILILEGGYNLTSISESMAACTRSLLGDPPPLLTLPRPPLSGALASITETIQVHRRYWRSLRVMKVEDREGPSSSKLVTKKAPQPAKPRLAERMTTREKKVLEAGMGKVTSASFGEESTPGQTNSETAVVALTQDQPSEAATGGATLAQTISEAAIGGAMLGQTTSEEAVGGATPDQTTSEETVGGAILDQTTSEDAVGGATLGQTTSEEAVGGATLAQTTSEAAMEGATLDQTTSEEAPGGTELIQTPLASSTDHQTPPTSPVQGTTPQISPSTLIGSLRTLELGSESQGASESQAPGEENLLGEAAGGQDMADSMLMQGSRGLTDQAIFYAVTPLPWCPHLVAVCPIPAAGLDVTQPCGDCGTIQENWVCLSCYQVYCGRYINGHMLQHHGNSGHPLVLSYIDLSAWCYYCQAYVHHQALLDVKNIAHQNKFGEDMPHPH
Nature of the assay: In vitro histone deacetylase assay: enzymatic HDAC6 electrophoretic mobility shift assay. Type of assay: biochemical. The note with it: 1 nM enzyme, 2 μM peptide substrate RHKK(Ac)-NH2, 25° C., 12 concentrations; read-out: Inhibitory Concentration (IC50) Values against HDAC6, Activity Range. In general terms: In EMSA bound probe runs differently from free probe, usually more slowly.

Structures are written as SMILES.

Regarding `COC[C@@H]1CN(C(=O)C2(C)CCC2)Cc2ccc(C(=O)NO)cc2O1` [(S)-N-hydroxy-2-(methoxymethyl)-4-(1-methylcyclobutane-1-carbonyl)-2,3,4,5-tetrahydrobenzo[f][1,4]oxazepine-8-carboxamide], the IC50 is no more than 100 nM. For the compound `CC(=O)N1CCOc2cc(C(=O)NO)ccc2C1` [4-acetyl-N-hydroxy-2,3,4,5-tetrahydrobenzo[f][1,4]oxazepine-8-carboxamide], the IC50 was no more than 100 nM. For `CC(C)(C(=O)N1CCOc2cc(C(=O)NO)ccc2C1)c1cccnc1` [N-hydroxy-4-(2-methyl-2-(pyridin-3-yl)propanoyl)-2,3,4,5-tetrahydrobenzo[f][1,4]oxazepine-8-carboxamide], the IC50 was in the range of 100 to 500 nM.

In the case of `O=C(NO)c1cnc2c(n1)OCCN(C(=O)C1CCOCC1)C2` [N-hydroxy-8-(tetrahydro-2H-pyran-4-carbonyl)-6,7,8,9-tetrahydropyrazino[2,3-f][1,4]oxazepine-3-carboxamide], the IC50 lay in the range of 100 to 500 nM. On to `C[C@H]1COc2cc(C(=O)NO)ccc2CN1C(=O)[C@]1(C)CCOC1` [(S)-N-hydroxy-3-methyl-4-((R)-3-methyltetrahydrofuran-3-carbonyl)-2,3,4,5-tetrahydrobenzo[f][1,4]oxazepine-8-carboxamide], for which the IC50 is no more than 100 nM. With `C[C@H]1COc2cc(C(=O)NO)ccc2CN1C(=O)[C@H]1CCOC(C)(C)C1` [(S)-4-((S)-2,2-dimethyltetrahydro-2H-pyran-4-carbonyl)-N-hydroxy-3-methyl-2,3,4,5-tetrahydrobenzo[f][1,4]oxazepine-8-carboxamide], the IC50 was no more than 100 nM. As for `CC1CC(C(=O)N2Cc3ccc(C(=O)NO)cc3OC[C@@H]2C)CC(C)O1` (stereo partly drawn) [(3S)-4-(2,6-dimethyltetrahydro-2H-pyran-4-carbonyl)-N-hydroxy-3-methyl-2,3,4,5-tetrahydrobenzo[f][1,4]oxazepine-8-carboxamide], the IC50 was no more than 100 nM. On to `O=C(NO)c1ccc2c(c1)O[C@@H]1C[C@H]2N(C(=O)C2CCOCC2)C1` [(2R,5R)-N-hydroxy-4-(tetrahydro-2H-pyran-4-carbonyl)-2,3,4,5-tetrahydro-2,5-methanobenzo[f][1,4]oxazepine-8-carboxamide], for which the IC50 lay in the range of 100 to 500 nM. In the case of `COCC1(C(=O)N2Cc3ccc(C(=O)NO)cc3OC[C@@H]2C)CCOCC1` [(S)-N-hydroxy-4-(4-(methoxymethyl)tetrahydro-2H-pyran-4-carbonyl)-3-methyl-2,3,4,5-tetrahydrobenzo[f][1,4]oxazepine-8-carboxamide] it was no more than 100 nM. Under `CC(C)(C)OC(=O)N1CCC2(CC1)c1ccccc1OC2C(=O)N1CCOc2cc(C(=O)NO)ccc2C1` (centres unmarked) [tert-butyl 2-(8-(hydroxycarbamoyl)-2,3,4,5-tetrahydrobenzo[f][1,4]oxazepine-4-carbonyl)-2H-spiro[benzofuran-3,4′-piperidine]-1′-carboxylate] stands 100 to 500 nM; under `O=C(NO)c1ccc2c(c1)OCCN(C(=O)Cc1cc(C(F)(F)F)cc(C(F)(F)F)c1)C2` [4-(2-(3,5-bis(trifluoromethyl)phenyl)acetyl)-N-hydroxy-2,3,4,5-tetrahydrobenzo[f][1,4]oxazepine-8-carboxamide], 100 to 500 nM.

Consider `O=C(NO)c1ccc2c(c1)OCCN(C(=O)c1cc(C(F)(F)F)cc(C(F)(F)F)c1)C2` [4-(3,5-bis(trifluoromethyl)benzoyl)-N-hydroxy-2,3,4,5-tetrahydrobenzo[f][1,4]oxazepine-8-carboxamide], for which the IC50 was 100 to 500 nM. Regarding `C[C@H]1COc2cc(C(=O)NO)ccc2CN1C(=O)[C@]1(C)CCCCO1` [(S)-N-hydroxy-3-methyl-4-((S)-2-methyltetrahydro-2H-pyran-2-carbonyl)-2,3,4,5-tetrahydrobenzo[f][1,4]oxazepine-8-carboxamide], the IC50 was no more than 100 nM. Under `O=C(NO)c1ccc2c(c1)OCCN(C(=O)C1CCCC13CCNC3)C2` (centres unmarked) [N-hydroxy-4-(2-azaspiro[4.4]nonane-6-carbonyl)-2,3,4,5-tetrahydrobenzo[f][1,4]oxazepine-8-carboxamide] stands 100 to 500 nM; under `O=C(NO)c1ccc2c(c1)OCCN(C(=O)C(c1ccccc1)N1CCCCC1=O)C2` (centres unmarked) [N-hydroxy-4-(2-(2-oxopiperidin-1-yl)-2-phenylacetyl)-2,3,4,5-tetrahydrobenzo[f][1,4]oxazepine-8-carboxamide], 100 to 500 nM.

`CC1(C(=O)N2CCOc3cc(C(=O)NO)ccc3C2)CCCC1` [N-hydroxy-4-(1-methylcyclopentane-1-carbonyl)-2,3,4,5-tetrahydrobenzo[f][1,4]oxazepine-8-carboxamide]: the IC50 was no more than 100 nM.

Turning to `CC1(C(=O)N2CCOc3cc(C(=O)NO)ccc3C2)COC1` [N-hydroxy-4-(3-methyloxetane-3-carbonyl)-2,3,4,5-tetrahydrobenzo[f][1,4]oxazepine-8-carboxamide], the IC50 is no more than 100 nM. Consider `C[C@H]1CN(C(=O)C2(C)CCC2)Cc2ccc(C(=O)NO)cc2O1` [(S)-N-hydroxy-2-methyl-4-(1-methylcyclobutane-1-carbonyl)-2,3,4,5-tetrahydrobenzo[f][1,4]oxazepine-8-carboxamide], for which the IC50 was 100 to 500 nM.

In the case of `O=C(NO)c1ccc2c(c1)OCCN(C(=O)[C@H]1CCOC1)C2` [(S)-N-hydroxy-4-(tetrahydrofuran-3-carbonyl)-2,3,4,5-tetrahydrobenzo[f][1,4]oxazepine-8-carboxamide], the IC50 is no more than 100 nM. Turning to `O=C(NO)c1ccc2c(c1)OCCN(C(=O)C1CCC3(CCNC3)CC1)C2` (centres unmarked) [N-hydroxy-4-(2-azaspiro[4.5]decane-8-carbonyl)-2,3,4,5-tetrahydrobenzo[f][1,4]oxazepine-8-carboxamide], the IC50 is no more than 100 nM. Take `Cc1cc(C)c(CC(=O)N2CCOc3cc(C(=O)NO)ccc3C2)c(C)c1` [N-hydroxy-4-(2-mesitylacetyl)-2,3,4,5-tetrahydrobenzo[f][1,4]oxazepine-8-carboxamide]: the IC50 is no more than 100 nM.

As for `CC(C)(C)OC(=O)N1CC2(CC(C(=O)N3CCOc4cc(C(=O)NO)ccc4C3)CS2(=O)=O)C1` (centres unmarked) [tert-butyl 7-(8-(hydroxycarbamoyl)-2,3,4,5-tetrahydrobenzo[f][1,4]oxazepine-4-carbonyl)-5-thia-2-azaspiro[3.4]octane-2-carboxylate 5,5-dioxide], the IC50 lay in the range of 100 to 500 nM.

With `CC(C)[C@H]1COc2cc(C(=O)NO)ccc2CN1C(=O)CC1CCOCC1` [(S)-N-hydroxy-3-isopropyl-4-(2-(tetrahydro-2H-pyran-4-yl)acetyl)-2,3,4,5-tetrahydrobenzo[f][1,4]oxazepine-8-carboxamide], the IC50 lay in the range of 100 to 500 nM. With `COC1(C(=O)N2Cc3ccc(C(=O)NO)cc3OC[C@@H]2C)CC1` [(S)-N-hydroxy-4-(1-methoxycyclopropane-1-carbonyl)-3-methyl-2,3,4,5-tetrahydrobenzo[f][1,4]oxazepine-8-carboxamide], the IC50 was no more than 100 nM.

Regarding `CC(=O)N1Cc2ccc(C(=O)NO)cc2O[C@@H](C)C1` [(S)-4-acetyl-N-hydroxy-2-methyl-2,3,4,5-tetrahydrobenzo[f][1,4]oxazepine-8-carboxamide], the IC50 is greater than 500 nM. `C[C@H]1COc2cc(C(=O)NO)ccc2CN1C(=O)[C@H]1CCCCO1` [(S)-N-hydroxy-3-methyl-4-((R)-tetrahydro-2H-pyran-2-carbonyl)-2,3,4,5-tetrahydrobenzo[f][1,4]oxazepine-8-carboxamide]: the IC50 is no more than 100 nM. On to `CC(=O)N1Cc2ccc(C(=O)NO)cc2OCC1(C)C` [4-acetyl-N-hydroxy-3,3-dimethyl-2,3,4,5-tetrahydrobenzo[f][1,4]oxazepine-8-carboxamide], for which the IC50 is 100 to 500 nM. Under `COCC1(C(=O)N2CCOc3cc(C(=O)NO)ccc3[C@@H]2C)CCOCC1` [(S)-N-hydroxy-4-(4-(methoxymethyl)tetrahydro-2H-pyran-4-carbonyl)-5-methyl-2,3,4,5-tetrahydrobenzo[f][1,4]oxazepine-8-carboxamide] stands no more than 100 nM; under `COc1ccc(C(C)(C)C(=O)N2CCOc3cc(C(=O)NO)ccc3C2)cc1OC` [4-(2-(3,4-dimethoxyphenyl)-2-methylpropanoyl)-N-hydroxy-2,3,4,5-tetrahydrobenzo[f][1,4]oxazepine-8-carboxamide], 100 to 500 nM.
